Measurements published in US20230382891A1, “GLUTAMINYL-PEPTIDE CYCLOTRANSFERASE LIKE (QPCTL) PROTEIN INHIBITORS AND USES THEREOF” (Blacksmith Medicines, Inc., priority 2020, published 2023).

Molecular target: Glutaminyl-peptide cyclotransferase like (QPCTL) protein (Homo sapiens, UniProt Q9NXS2)
Assay: Glutaminyl-peptide cyclotransferase like (QPCTL) protein inhibition assay (Gln-AMC substrate, pGAPase coupled)
Assay type: biochemical
Conditions: 50 mM MES pH 7.0, 10 μM ZnCl2, 0.2 U/mL pGAPase, Gln-AMC at its Km, 30° C.
Procedure: Example B-1: Glutaminyl-Peptide Cyclotransferase Like (OPCTL) Protein Inhibition Assay
Glutaminyl-peptide cyclotransferase like (QPCTL) protein activity was determined using L-glutamine-7-amido-4-methylcoumarin (Gln-AMC, Santa Cruz Biotechnology) as a substrate. A second enzyme, pyroglutamyl aminopeptidase (pGAPase, Qiagen), was included in the assay to release the AMC fluorophore following cyclization; appropriate controls were run to ensure that inhibitors were not inhibiting the auxiliary enzyme. Inhibitors were added at various concentrations to buffer (final concentrations: 50 mM MES pH 7.0, 10 μM ZnCl2, 0.2 U/mL pGAPase, Gln-AMC at its Km) and the reaction initiated by the addition of QPCTL. Reactions became linear after a 10-minute equilibration period at 30° C. (to accumulate pGlu-AMC intermediate), and were monitored for an additional 10 minutes.
Table A provides QPCTL inhibitory activity of illustrative compounds, where A means IC50 is <1 μM; B means IC50 is between 1 to 10 μM; C means IC50 is between 10 to 50 PM; D means IC50 is >50 PM.

Sequence of Glutaminyl-peptide cyclotransferase like (QPCTL) protein (Q9NXS2 whole entry, species assumed): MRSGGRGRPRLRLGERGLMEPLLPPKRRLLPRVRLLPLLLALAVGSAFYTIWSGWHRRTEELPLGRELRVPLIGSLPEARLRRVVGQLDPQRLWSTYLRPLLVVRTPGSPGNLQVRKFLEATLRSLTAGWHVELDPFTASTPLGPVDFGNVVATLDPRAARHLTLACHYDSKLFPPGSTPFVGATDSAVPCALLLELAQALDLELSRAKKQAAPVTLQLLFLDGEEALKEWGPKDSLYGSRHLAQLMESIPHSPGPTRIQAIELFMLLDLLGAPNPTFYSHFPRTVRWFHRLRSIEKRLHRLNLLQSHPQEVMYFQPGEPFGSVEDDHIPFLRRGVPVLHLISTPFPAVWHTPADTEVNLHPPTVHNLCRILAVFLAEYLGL

Molecule | IC50 | QPCTL IC50
1-(1-(6′-chloro-[3,3′-bipyridin]-2-yl)piperidin-4-yl)-1H-1,2,3-triazol-4-amine [Compound 3] | < 1000 nM | 
Nc1nnc(C2CCN(c3ncccc3-c3ccc(F)nc3)CC2)[nH]1 [Compound 1, 5-(1-(6′-fluoro-[3,3′-bipyridin]-2-yl)piperidin-4-yl)-4H-1,2,4-triazol-3-amine] | < 1000 nM | 
Nc1nnc(C2CCN(c3ncccc3-c3ccc(F)nc3)CC2)o1 [Compound 2, 5-(1-(6′-fluoro-[3,3′-bipyridin]-2-yl)piperidin-4-yl)-1,3,4-oxadiazol-2-amine] | < 1000 nM | 
Cc1ccc(-c2ccc(F)nc2)c(N2CCC(c3nnc(N)n3C)CC2)n1 [Compound 4, 5-(1-(6′-fluoro-6-methyl-[3,3′-bipyridin]-2-yl)piperidin-4-yl)-4-methyl-4H-1,2,4-triazol-3-amine] | < 1000 nM | 
Cn1c(N)nnc1C1CCN(c2nc(F)ccc2-c2ccc(F)nc2)CC1 [Compound 5, 5-(1-(6,6′-difluoro-[3,3′-bipyridin]-2-yl)piperidin-4-yl)-4-methyl-4H-1,2,4-triazol-3-amine] | < 1000 nM | 
Cn1c(N)nnc1C1CCN(c2ncccc2-c2ccc(F)nc2)CC1 [Compound 6, 5-(1-(6′-fluoro-[3,3′-bipyridin]-2-yl)piperidin-4-yl)-4-methyl-4H-1,2,4-triazol-3-amine] | < 1000 nM | 
CNc1nnc(C2CCN(c3ncccc3-c3ccc(F)nc3)CC2)[nH]1 [Compound 7, 5-(1-(6′-fluoro-[3,3′-bipyridin]-2-yl)piperidin-4-yl)-N-methyl-4H-1,2,4-triazol-3-amine] | < 1000 nM | 
Cc1c(N)nnn1C1CCN(c2ncccc2-c2ccc(F)nc2)CC1 [Compound 10, 1-(1-(6′-fluoro-[3,3′-bipyridin]-2-yl)piperidin-4-yl)-5-methyl-1H-1,2,3-triazol-4-amine] | < 1000 nM | 
Fc1ccc(-c2cccnc2N2CC=C(c3cccn4cnnc34)CC2)cc1F [Compound 11, 8-(3′-(3,4-difluorophenyl)-3,6-dihydro-2H-[1,2′-bipyridin]-4-yl)-[1,2,4]triazolo[4,3-a]pyridine] |  | C (C means IC50 is between 10 to 50 PM)
N#Cc1ccc(-c2cccnc2N2CC=C(c3cccn4cnnc34)CC2)cn1 [Compound 12, 4-([1,2,4]triazolo[4,3-a]pyridin-8-yl)-3,6-dihydro-2H-[1,2′:3′,3″-terpyridine]-6″-carbonitrile] | 1000 to 10000 nM | 
Nc1ccc(-c2cccnc2N2CC=C(c3cccn4cnnc34)CC2)cn1 [Compound 13, 4-([1,2,4]triazolo[4,3-a]pyridin-8-yl)-3,6-dihydro-2H-[1,2′:3′,3″-terpyridin]-6″-amine] | 1000 to 10000 nM | 
COc1ccc(-c2cccnc2N2CC=C(c3cccn4cnnc34)CC2)cn1 [Compound 14, 8-(6″-methoxy-3,6-dihydro-2H-[1,2′:3′,3″-terpyridin]-4-yl)-[1,2,4]triazolo[4,3-a]pyridine] | 1000 to 10000 nM | 
Nc1nnc2c(C3=CCN(c4ncccc4-c4ccc(F)nc4)CC3)cccn12 [Compound 15, 8-(6″-fluoro-3,6-dihydro-2H-[1,2′:3′,3″-terpyridin]-4-yl)-[1,2,4]triazolo[4,3-a]pyridin-3-amine] | < 1000 nM | 
C1=C(c2cccn3cnnc23)CCN(c2ncccc2-c2cncnc2)C1 [Compound 16, 8-(3′-(pyrimidin-5-yl)-3,6-dihydro-2H-[1,2′-bipyridin]-4-yl)-[1,2,4]triazolo[4,3-a]pyridine] |  | C (C means IC50 is between 10 to 50 PM)
Nc1nnc2c(C3CCN(c4ncccc4-c4ccc(F)nc4)CC3)cccn12 [Compound 17, 8-(1-(6′-fluoro-[3,3′-bipyridin]-2-yl)piperidin-4-yl)-[1,2,4]triazolo[4,3-a]pyridin-3-amine] | < 1000 nM | 
Fc1ccc(-c2cccnc2N2CC=C(c3cccn4cnnc34)CC2)cn1 [Compound 18, 8-(6″-fluoro-3,6-dihydro-2H-[1,2′:3′,3″-terpyridin]-4-yl)-[1,2,4]triazolo[4,3-a]pyridine] | 1000 to 10000 nM | 
COCCOc1ccc(-c2cccnc2N2CC=C(c3cccn4cnnc34)CC2)cn1 [Compound 19, 8-(6″-(2-methoxyethoxy)-3,6-dihydro-2H-[1,2′:3′,3″-terpyridin]-4-yl)-[1,2,4]triazolo[4,3-a]pyridine] | 1000 to 10000 nM | 
Fc1ccc(-c2cccnc2N2CC=C(c3cccn4cncc34)CC2)cn1 [Compound 20, 8-(6″-fluoro-3,6-dihydro-2H-[1,2′:3′,3″-terpyridin]-4-yl)imidazo[1,5-a]pyridine] | 1000 to 10000 nM | 
Fc1ccc(CN2CC=C(c3cccn4cnnc34)CC2)cn1 [Compound 21, 8-(1-((6-fluoropyridin-3-yl)methyl)-1,2,3,6-tetrahydropyridin-4-yl)-[1,2,4]triazolo[4,3-a]pyridine] |  | D (D means IC50 is >50 PM)
C1=C(c2cccn3cnnc23)CCN(c2ccccn2)C1 [Compound 22, 8-(3,6-dihydro-2H-[1,2′-bipyridin]-4-yl)-[1,2,4]triazolo[4,3-a]pyridine] |  | C (C means IC50 is between 10 to 50 PM)
COc1ccc(C2=CCCN(CC#Cc3cccn4cnnc34)C2)cc1OC [Compound 23, 8-(3-(5-(3,4-dimethoxyphenyl)-3,6-dihydropyridin-1(2H)-yl)prop-1-yn-1-yl)-[1,2,4]triazolo[4,3-a]pyridine] |  | C (C means IC50 is between 10 to 50 PM)
C1=C(c2cccn3cncc23)CCN(c2ccccn2)C1 [Compound 24, 8-(3,6-dihydro-2H-[1,2′-bipyridin]-4-yl)imidazo[1,5-a]pyridine] | 1000 to 10000 nM | 
COc1ccc(CN2CCC=C(c3cccn4cnnc34)C2)cc1OC [Compound 25, 8-(1-(3,4-dimethoxybenzyl)-1,2,5,6-tetrahydropyridin-3-yl)-[1,2,4]triazolo[4,3-a]pyridine] |  | D (D means IC50 is >50 PM)
OCCn1cc(C2CN(c3ccccn3)CC=C2c2cccn3cnnc23)cn1 (stereo not shown) [Compound 26, 2-(4-(4-([1,2,4]triazolo[4,3-a]pyridin-8-yl)-3,6-dihydro-2H-[1,2′-bipyridin]-3-yl)-1H-pyrazol-1-yl)ethan-1-ol] | 1000 to 10000 nM | 
c1ccc(N2CCC(C3CCCn4cnnc43)CC2)nc1 (stereo not shown) [Compound 27, 8-(1-(pyridin-2-yl)piperidin-4-yl)-5,6,7,8-tetrahydro-[1,2,4]triazolo[4,3-a]pyridine] |  | C (C means IC50 is between 10 to 50 PM)
